Experimental findings from patent US9796733B2, “Imidazo-pyrazine derivatives useful as soluble guanylate cyclase activators” (Merck Sharp & Dohme Corp., priority 2014, dated 2017) are described below.

For experiment [1], the target named is T1, sGC α1/β1 heterodimer (Homo sapiens, UniProt Q02108+Q02153).
T1 construct: expressed in transfected cells; host or cells: CHO-K1 (clone #7, CHO-K1/sGC)
T1 sequence (Q02108 1-690): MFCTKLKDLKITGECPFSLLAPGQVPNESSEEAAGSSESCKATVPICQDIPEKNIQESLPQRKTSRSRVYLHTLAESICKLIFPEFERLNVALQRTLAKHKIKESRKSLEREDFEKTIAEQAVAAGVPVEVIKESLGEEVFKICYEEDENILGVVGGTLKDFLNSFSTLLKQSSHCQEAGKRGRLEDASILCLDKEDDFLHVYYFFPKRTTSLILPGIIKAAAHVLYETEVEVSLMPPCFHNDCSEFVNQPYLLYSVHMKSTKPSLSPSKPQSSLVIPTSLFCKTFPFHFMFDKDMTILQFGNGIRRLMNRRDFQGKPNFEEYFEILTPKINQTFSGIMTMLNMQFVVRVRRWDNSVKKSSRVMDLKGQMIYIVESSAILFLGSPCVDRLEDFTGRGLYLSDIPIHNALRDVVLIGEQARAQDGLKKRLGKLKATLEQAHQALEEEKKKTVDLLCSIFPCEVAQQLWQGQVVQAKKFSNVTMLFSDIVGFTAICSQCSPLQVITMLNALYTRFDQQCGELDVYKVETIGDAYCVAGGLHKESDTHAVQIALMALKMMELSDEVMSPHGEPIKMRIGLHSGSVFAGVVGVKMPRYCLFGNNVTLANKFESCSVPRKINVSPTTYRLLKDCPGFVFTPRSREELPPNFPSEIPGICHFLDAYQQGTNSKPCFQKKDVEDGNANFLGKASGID
T1 sequence (Q02153 1-619): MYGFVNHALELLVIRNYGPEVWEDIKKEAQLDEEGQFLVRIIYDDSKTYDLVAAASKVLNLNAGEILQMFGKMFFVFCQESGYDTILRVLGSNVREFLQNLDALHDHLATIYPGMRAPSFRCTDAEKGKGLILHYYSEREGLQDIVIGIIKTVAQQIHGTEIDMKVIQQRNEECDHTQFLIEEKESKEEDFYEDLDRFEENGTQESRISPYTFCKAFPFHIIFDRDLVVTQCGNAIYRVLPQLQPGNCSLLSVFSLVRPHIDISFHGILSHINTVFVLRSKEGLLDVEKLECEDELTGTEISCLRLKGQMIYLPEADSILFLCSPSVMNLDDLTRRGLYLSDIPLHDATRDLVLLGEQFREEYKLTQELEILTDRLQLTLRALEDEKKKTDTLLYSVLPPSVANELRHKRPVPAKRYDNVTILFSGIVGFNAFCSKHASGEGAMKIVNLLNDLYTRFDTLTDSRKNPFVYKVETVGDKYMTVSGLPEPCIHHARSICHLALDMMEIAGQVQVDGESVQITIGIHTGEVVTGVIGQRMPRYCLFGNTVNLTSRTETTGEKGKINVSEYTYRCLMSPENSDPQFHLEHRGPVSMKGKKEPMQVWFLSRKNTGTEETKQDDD
Put plainly: Cell-based sGC functional assay (CASA assay): cGMP generation in CHO-K1/sGC cells, HTRF detection. To be noted: for Emax: CHO-K1, percent activation relative to standard Compound A in CHO-K1/sGC cells, read-out: % Act.; for EC50: inflection point (IP) of cGMP generation in CHO-K1/sGC cells, 4P fit, activity expressed as percentage of Compound A. Summed up: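 Stable CHO-K1/sGC cells in EBSS buffer with 5 mM MgCl2, 0.05% BSA and 0.5 mM IBMX were incubated with compound (2.5% DMSO final) ±1 μM DETA-NO for 1 hr at 37° C. cGMP was measured by HTRF. Activation is expressed as % of reference HDA Compound A maximum, with IP and max fold induction from a 4P fit.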

Experiment [2] deals with Spontaneously hypertensive rats (SHR). Briefly: Acute efficacy in spontaneously hypertensive rats (SHR): telemetry blood pressure lowering after a single oral dose. The experiment is classed as in vivo, rat. The procedure, abridged:
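Male SHR carrying aortic telemetry implants (14-day recovery) received a single oral gavage of compound or vehicle (10% transcutol/20% Cremophor/70% water). Conscious blood pressure was sampled 30 s every 10 min and averaged hourly; change was taken against the prior-day vehicle baseline, reported as maximum peak SBP decrease at a given PO dose (mpk).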

For the compound `Cc1nnc(C2(C)C(=O)Nc3nc(-c4cn5ccnc5c(Cc5ccc(F)cc5)n4)nc(N)c32)s1` (stereo not drawn) [Example 33A, 4-amino-2-(8-(4-fluorobenzyl)imidazo[1,2-a]pyrazin-6-yl)-5-methyl-5-(5-methyl-1,3,4-thiadiazol-2-yl)-5H-pyrrolo[2,3-d]pyrimidin-6(7H)-one], in experiment [1], the Emax was 135% and the EC50 was determined as 129 nM. Besides, the “Maximum peak decrease of systolic blood pressure (SBP) in SHR, Cat.” value (“Maximum peak decrease” for short) in experiment [2] (P.O. 1.0 mpk) is “B (Category B=SBP in SHRs 20-40 mmHg)”.

Turning to `CC1(c2ccc(F)cc2)C(=O)Nc2nc(-c3cn4ccnc4c(CC4CCC4)n3)nc(N)c21` (stereo not drawn) [Example 114A, 4-amino-2-(8-(cyclobutylmethyl)imidazo [1,2-a]pyrazin-6-yl)-5-(4-fluorophenyl)-5-methyl-5H-pyrrolo[2,3-d]pyrimidin-6(7H)-one], in experiment [1], the Emax amounted to 94% and the EC50 worked out at 57 nM. Besides, in experiment [2] (P.O. 0.3 mpk), the “Maximum peak decrease” value was “C (Category C=SBP in SHRs>40 mmHg)”.

With `Nc1nc(-c2cn3ccnc3c(CCCC(F)(F)F)n2)nc2c1C(c1ncc(Cl)cn1)(C1CC1)C(=O)N2` (stereo not drawn) [Example 373A, 4-amino-5-(5-chloropyrimidin-2-yl)-5-cyclopropyl-2-(8-(4,4,4-trifluorobutyl)imidazo[1,2-a]pyrazin-6-yl)-5H-pyrrolo[2,3-d]pyrimidin-6(7H)-one], in experiment [1], the Emax is 114% and the midpoint of the response, the EC50, lay at 26 nM. Also, the “Maximum peak decrease” value in experiment [2] (P.O. 0.3 mpk) is on record as “A (Category A=SBP in SHRs<20 mmHg)”.

In the case of `CCC1(c2ccc(F)cc2)C(=O)Nc2nc(-c3cn4ccnc4c(CCCC(F)(F)F)n3)nc(N)c21` (stereo not drawn) [Example 215A, 4-amino-5-ethyl-5-(4-fluorophenyl)-2-(8-(4,4,4-trifluorobutyl)imidazo[1,2-a]pyrazin-6-yl)-5H-pyrrolo[2,3-d]pyrimidin-6(7H)-one], in experiment [1], the Emax was 107% and the half-maximal effective concentration (EC50) is 351 nM. The “Maximum peak decrease” value in experiment [2] (P.O. 0.3 mpk) is given as “B (Category B=SBP in SHRs 20-40 mmHg)”.

For `CC1(c2ccc(F)cc2)C(=O)Nc2nc(-c3cn4ccnc4c(CCC(F)(F)C(F)(F)F)n3)nc(N)c21` (single isomer, unassigned) [Example 222B, 4-amino-5-(4-fluorophenyl)-5-methyl-2-(8-(3,3,4,4,4-pentafluorobutyl)imidazo [1,2-a]pyrazin-6-yl)-5H-pyrrolo[2,3-d]pyrimidin-6(7H)-one], in experiment [1], the Emax came out at 121% and the EC50 amounted to 578 nM. In addition, the “Maximum peak decrease” value in experiment [2] (P.O. 3.0 mpk) is “B (Category B=SBP in SHRs 20-40 mmHg)”.

For `CCCc1nc(-c2nc(N)c3c(n2)NC(=O)C3(c2ccc(Cl)c(F)c2)C2CC2)cn2ccnc12` (stereo not drawn) [Example 327A, 4-amino-5-(4-chloro-3-fluorophenyl)-5-cyclopropyl-2-(8-propylimidazo[1,2-a]pyrazin-6-yl)-5H-pyrrolo[2,3-d]pyrimidin-6(7H)-one], in experiment [1], the Emax came out at 112% and the EC50 was determined as 134 nM. For the same compound, in experiment [2] (P.O. 1.0 mpk), the “Maximum peak decrease” value is “A (Category A=SBP in SHRs<20 mmHg)”.

For `CCC1(c2ccc(Cl)cc2)C(=O)Nc2nc(-c3cn4ccnc4c(CCC(F)(F)C(F)(F)F)n3)nc(N)c21` (stereo not drawn) [Example 247B, 4-amino-5-(4-chlorophenyl)-5-ethyl-2-(8-(3,3,4,4,4-pentafluorobutyl)imidazo [1,2-a]pyrazin-6-yl)-5H-pyrrolo[2,3-d]pyrimidin-6(7H)-one], in experiment [1], the Emax turned out to be 117% and the EC50 came out at 152 nM. The “Maximum peak decrease” value in experiment [2] (P.O. 0.3 mpk) is “A (Category A=SBP in SHRs<20 mmHg)”.

As to `CC1(c2ccc(C(F)(F)F)cc2)C(=O)Nc2nc(-c3cn4ccnc4cn3)nc(N)c21` (stereo not drawn) [Example 143B, 4-amino-2-(imidazo[1,2-a]pyrazin-6-yl)-5-methyl-5-(4-(trifluoromethyl)phenyl)-5H-pyrrolo[2,3-d]pyrimidin-6(7H)-one], in experiment [1], the Emax is 78% and the EC50 was 252 nM. For the same compound, in experiment [2] (P.O. 3.0 mpk), the “Maximum peak decrease” value is listed as “B (Category B=SBP in SHRs 20-40 mmHg)”.

In the case of `CN1CCN(c2nc(-c3cn4ccnc4c(CCC(F)(F)C(F)(F)F)n3)nc3c2C(C)(c2ccc(F)cc2)C(=O)N3)CC1` (stereo not drawn) [Example 311A, 5-(4-fluorophenyl)-5-methyl-4-(4-methylpiperazin-1-yl)-2-(8-(3,3,4,4,4-pentafluorobutyl)imidazo[1,2-a]pyrazin-6-yl)-5H-pyrrolo[2,3-d]pyrimidin-6(7H)-one], in experiment [1], the Emax was 92% and the EC50 worked out at 29 nM. Also, in experiment [2] (P.O. 0.3 mpk), the “Maximum peak decrease” value is “A (Category A=SBP in SHRs<20 mmHg)”.

Take `CC1(c2nnc(C3CC3)o2)C(=O)Nc2nc(-c3cn4ccnc4c(Cc4ccc(F)cc4)n3)nc(N)c21` (stereo not drawn) [Example 34A, 4-amino-5-(5-cyclopropyl-1,3,4-oxadiazol-2-yl)-2-(8-(4-fluorobenzyl)imidazo[1,2-a]pyrazin-6-yl)-5-methyl-5H-pyrrolo[2,3-d]pyrimidin-6(7H)-one]: in experiment [1], the Emax came out at 150% and the EC50 was found to be 339 nM. Also, in experiment [2] (P.O. 3.0 mpk), the “Maximum peak decrease” value was “B (Category B=SBP in SHRs 20-40 mmHg)”.

Consider `CC1(c2ccc(F)cc2)C(=O)Nc2nc(-c3cn4ccnc4c(-c4ccccc4)n3)nc(N)c21` (stereo not drawn) [Example 112A, 4-amino-5-(4-fluorophenyl)-5-methyl-2-(8-phenylimidazo[1,2-a]pyrazin-6-yl)-5H-pyrrolo[2,3-d]pyrimidin-6(7H)-one], for which, in experiment [1], the Emax is 89% and the EC50 is 289 nM. In experiment [2] (P.O. 3.0 mpk), the “Maximum peak decrease” value was “B (Category B=SBP in SHRs 20-40 mmHg)”.

In the case of `CCC1(c2ccc(Br)cc2)C(=O)Nc2nc(-c3cn4ccnc4c(CCC(F)(F)F)n3)nc(N)c21` (stereo not drawn) [Example 197A, 4-amino-5-(4-bromophenyl)-5-ethyl-2-(8-(3,3,3-trifluoropropyl)imidazo[1,2-a]pyrazin-6-yl)-5H-pyrrolo[2,3-d]pyrimidin-6(7H)-one], in experiment [1], the Emax was found to be 66% and a half-maximal effect (EC50) was put at 163 nM. For the same compound, in experiment [2] (P.O. 3.0 mpk), the “Maximum peak decrease” value is recorded as “B (Category B=SBP in SHRs 20-40 mmHg)”.

As to `Nc1nc(-c2cn3ccnc3c(CCC(F)(F)C(F)(F)F)n2)nc2c1C(c1ccc(Cl)cc1)(C1CC1)C(=O)N2` (stereo not drawn) [Example 235B, 4-amino-5-(4-chlorophenyl)-5-cyclopropyl-2-(8-(3,3,4,4,4-pentafluorobutyl)imidazo [1,2-a]pyrazin-6-yl)-5H-pyrrolo[2,3-d]pyrimidin-6(7H)-one], in experiment [1], the Emax worked out at 148% and the response was half-maximal at 36 nM (EC50). Further, the “Maximum peak decrease” value in experiment [2] (P.O. 0.3 mpk) is “B (Category B=SBP in SHRs 20-40 mmHg)”.

Regarding `CC1(c2ccccc2)C(=O)Nc2nc(-c3cn4ccnc4c(Cc4c(F)ccc(F)c4F)n3)nc(N)c21` (stereo not drawn) [Example 100B, 4-amino-5-methyl-5-phenyl-2-(8-(2,3,6-trifluorobenzyl)imidazo[1,2-a]pyrazin-6-yl)-5H-pyrrolo[2,3-d]pyrimidin-6(7H)-one], in experiment [1], the Emax was determined as 96% and a half-maximal response (EC50) required 13 nM. In addition, the “Maximum peak decrease” value in experiment [2] (P.O. 0.3 mpk) is “A (Category A=SBP in SHRs<20 mmHg)”.

Regarding `CC1(c2ccc(Cl)cc2)C(=O)Nc2nc(-c3cn4ccnc4c(CCC(F)(F)F)n3)nc(N)c21` (stereo not drawn) [Example 182A, 4-amino-5-(4-chlorophenyl)-5-methyl-2-(8-(3,3,3-trifluoropropyl)imidazo[1,2-a]pyrazin-6-yl)-5H-pyrrolo[2,3-d]pyrimidin-6(7H)-one], in experiment [1], the Emax amounted to 120% and the EC50 was determined as 55 nM. In addition, the “Maximum peak decrease” value in experiment [2] (P.O. 1.0 mpk) is “B (Category B=SBP in SHRs 20-40 mmHg)”.
